# Data as given in patent US10822348B2, “Inhibitors of Bruton's tyrosine kinase and methods of their use” (JANSSEN PHARMACEUTICA NV, priority 2015, dated 2020).
# Molecular target: unphosphorylated-BTK kinase domain (UP-BTK), GST-tagged human BTK (389-659aa) (Homo sapiens (Human), UniProt Q06187)
# Assay: BTK kinase Lanthascreen binding assay
# Conditions: negative log of the IC50 in molar; 60 minutes incubation, 50 nM Tracer 236
# Protocol: BTK Kinase Lanthascreen Binding Assay:
# A BTK kinase lanthascreen binding assay monitors compound binding to unphosphorylated-BTK kinase domain (UP-BTK), by competing with a fluorescent labeled tracer. […] Data were analyzed using Xlfit™ version 5.3 from ID Business Solutions (Guildford), Microsoft Excel add-in. pIC50 refers to the negative log of the IC50 in molar.
# Sequence of unphosphorylated-BTK kinase domain (UP-BTK), GST-tagged human BTK (389-659aa) (Q06187 389-659): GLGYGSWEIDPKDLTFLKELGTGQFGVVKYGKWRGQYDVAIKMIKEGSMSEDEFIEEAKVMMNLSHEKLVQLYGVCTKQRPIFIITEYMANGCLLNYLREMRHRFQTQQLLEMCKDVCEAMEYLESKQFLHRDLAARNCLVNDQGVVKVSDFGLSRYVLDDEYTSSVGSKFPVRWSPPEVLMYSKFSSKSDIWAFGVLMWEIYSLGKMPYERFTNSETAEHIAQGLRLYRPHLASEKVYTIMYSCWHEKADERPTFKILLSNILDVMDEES
row,SMILES,BTK_I_binding pIC50
1,"Cc1cc(Oc2ccccc2)ccc1N1C(=O)Nc2c(C(=O)N[C@@H]3CCCN(C(=O)CN(C)C)C3)sc3nccc1c23 (single isomer, unassigned) [Example 56, (R)—N-(1-(2-(Dimethylamino)acetyl)piperidin-3-yl)-5-(*S)-(2-methyl-4-phenoxyphenyl)-4-oxo-4,5-dihydro-3H-1-thia-3,5,8-triazaacenaphthylene-2-carboxamide]",7.4
2,"Cc1cc(Oc2ccccc2)ccc1N1C(=O)Nc2c(C(=O)N[C@H]3CCCOC3)sc3nccc1c23 (single isomer, unassigned) [Example 88, (S)-5-(*S)-(2-Methyl-4-phenoxyphenyl)-4-oxo-N-(tetrahydro-2H-pyran-3-yl)-4,5-dihydro-3H-1-thia-3,5,8-triazaacenaphthylene-2-carboxamide]",7.6
3,"Cc1cc(Oc2ccccc2)ccc1N1C(=O)Nc2c(C(=O)N[C@@H]3CCCOC3)sc3nccc1c23 (single isomer, unassigned) [Example 96, (R)-5-(*S)-(2-Methyl-4-phenoxyphenyl)-4-oxo-N-(tetrahydro-2H-pyran-3-yl)-4,5-dihydro-3H-1-thia-3,5,8-triazaacenaphthylene-2-carboxamide]",7.8

# Now from value to compound:
row,BTK_I_binding pIC50,SMILES
1,8.1,"C=CC(=O)N1CCC[C@@H](NC(=O)c2sc3nccc4c3c2NC(=O)N4c2ccc(Oc3ccccc3)cc2C)C1 (single isomer, unassigned) [Example 9, (R)—N-(1-Acryloylpiperidin-3-yl)-5-(*S)-(2-methyl-4-phenoxyphenyl)-4-oxo-4,5-dihydro-3H-1-thia-3,5,8-triazaacenaphthylene-2-carboxamide]"
2,7.5,"CNC/C=C/C(=O)N1CCC[C@@H](NC(=O)c2sc3nccc4c3c2NC(=O)N4c2ccc(Oc3ccccc3)cc2C)C1 (single isomer, unassigned) [Example 23, (R,E)-5-(*S)-(2-Methyl-4-phenoxyphenyl)-N-(1-(4-(methylamino)but-2-enoyl)piperidin-3-yl)-4-oxo-4,5-dihydro-3H-1-thia-3,5,8-triazaacenaphthylene-2-carboxamide]"
3,7.3,"CNC/C=C/C(=O)N1CCC[C@@H](NC(=O)c2sc3nccc4c3c2NC(=O)N4c2ccc(Oc3ccccc3)cc2C)C1 (single isomer, unassigned) [Example 38, (R,E)-5-(*S)-(2-Methyl-4-phenoxyphenyl)-N-(1-(4-(methylamino)but-2-enoyl)piperidin-3-yl)-4-oxo-4,5-dihydro-3H-1-thia-3,5,8-triazaacenaphthylene-2-carboxamide]"
4,7.4,"C=CC(=O)N1CCC[C@H](NC(=O)c2sc3nccc4c3c2NC(=O)N4c2ccc(Oc3ccccc3)cc2C)C1 (single isomer, unassigned) [Example 44, (S)—N-(1-Acryloylpiperidin-3-yl)-5-(*S)-(2-methyl-4-phenoxyphenyl)-4-oxo-4,5-dihydro-3H-1-thia-3,5,8-triazaacenaphthylene-2-carboxamide]"
5,7.2,"C=CC(=O)N1CCC[C@H](NC(=O)c2sc3nccc4c3c2NC(=O)N4c2ccc(Oc3ccccc3)cc2C)C1 (single isomer, unassigned) [Example 82, (S)—N-(1-acryloylpiperidin-3-yl)-5-(*S)-(2-methyl-4-phenoxyphenyl)-4-oxo-4,5-dihydro-3H-1-thia-3,5,8-triazaacenaphthylene-2-carboxamide]"
6,6.9,"C=CC(=O)N1CCC[C@@H](NC(=O)c2sc3nccc4c3c2NC(=O)N4c2ccc(Oc3ccccc3)cc2C)C1 (single isomer, unassigned) [Example 87, (R)—N-(1-Acryloylpiperidin-3-yl)-5-(*R)-(2-methyl-4-phenoxyphenyl)-4-oxo-4,5-dihydro-3H-1-thia-3,5,8-triazaacenaphthylene-2-carboxamide]"

# Same assay, conditions: read-out: BTK_I_binding pIC50 (converted)
row,IC50 [nM],SMILES
1,6.31,"C=CC(=O)N1C[C@@H](O)C[C@@H](NC(=O)c2sc3nccc4c3c2NC(=O)N4c2ccc(Oc3ccccc3)cc2C)C1 (single isomer, unassigned) [Example 2, N-((3R,5S)-1-Acryloyl-5-hydroxypiperidin-3-yl)-5-(*S)-(2-methyl-4-phenoxyphenyl)-4-oxo-4,5-dihydro-3H-1-thia-3,5,8-triazaacenaphthylene-2-carboxamide]"

# Same assay, conditions: unphosphorylated-BTK kinase domain; 60 minutes incubation; pIC50 = negative log of the IC50 in molar
row,BTK_I_binding pIC50,SMILES
1,8.2,"C=CC(=O)N1C[C@H](NC(=O)c2sc3nccc4c3c2NC(=O)N4c2ccc(Oc3ccccc3)cc2C)C[C@@H](OC)C1 (relative stereo) [Example 481, N-((3R,5R)-1-Acryloyl-5-methoxypiperidin-3-yl)-5-(*S)-(2-methyl-4-phenoxyphenyl)-4-oxo-4,5-dihydro-3H-1-thia-3,5,8-triazaacenaphthylene-2-carboxamide]"
2,8.0,"C=CC(=O)N1C[C@H](NC(=O)c2sc3nccc4c3c2NC(=O)N4c2ccc(Oc3ccccc3)cc2C)C[C@H](OC)C1 (relative stereo) [Example 482, N-((3R,5S)-1-Acryloyl-5-methoxypiperidin-3-yl)-5-(*S)-(2-methyl-4-phenoxyphenyl)-4-oxo-4,5-dihydro-3H-1-thia-3,5,8-triazaacenaphthylene-2-carboxamide]"
3,8.0,"C=CC(=O)N1C[C@@H](F)C[C@@H](NC(=O)c2sc3nccc4c3c2NC(=O)N4c2ccc(Oc3ccccc3)cc2C)C1 (relative stereo) [Example 484, N-((3R,5S)-1-Acryloyl-5-fluoropiperidin-3-yl)-5-(*S)-(2-methyl-4-phenoxyphenyl)-4-oxo-4,5-dihydro-3H-1-thia-3,5,8-triazaacenaphthylene-2-carboxamide]"
4,7.7,"C=CC(=O)N1C[C@H](NC(=O)c2sc3nccc4c3c2NC(=O)N4c2ccc(Oc3ccccc3)cc2C)[C@@H](OC)C1 (relative stereo) [Example 490, N-((3S,4S)-1-Acryloyl-4-methoxypyrrolidin-3-yl)-5-(*S)-(2-methyl-4-phenoxyphenyl)-4-oxo-4,5-dihydro-3H-1-thia-3,5,8-triazaacenaphthylene-2-carboxamide]"
5,7.7,"C=CC(=O)N1C[C@H](NC(=O)c2sc3nccc4c3c2NC(=O)N4c2ccc(Oc3ccccc3)cc2C)[C@H](OC)C1 (relative stereo) [Example 508, N-((3S,4R)-1-Acryloyl-4-methoxypyrrolidin-3-yl)-5-(*S)-(2-methyl-4-phenoxyphenyl)-4-oxo-4,5-dihydro-3H-1-thia-3,5,8-triazaacenaphthylene-2-carboxamide]"

row,SMILES,BTK_I_binding pIC50
1,"C=CC(=O)N1C[C@H](O)C[C@@H](NC(=O)c2sc3nccc4c3c2NC(=O)N4c2ccc(Oc3ccccc3)cc2C)C1 (relative stereo) [Example 483, N-((3R,5R)-1-Acryloyl-5-hydroxypiperidin-3-yl)-5-(*S)-(2-methyl-4-phenoxyphenyl)-4-oxo-4,5-dihydro-3H-1-thia-3,5,8-triazaacenaphthylene-2-carboxamide]",8.4
2,"C=CC(=O)N1C[C@H](NC(=O)c2sc3nccc4c3c2NC(=O)N4c2ccc(Oc3ccccc3)cc2C)[C@@H](F)C1 (relative stereo) [Example 486, N-((3S,4S)-1-Acryloyl-4-fluoropyrrolidin-3-yl)-5-(*S)-(2-methyl-4-phenoxyphenyl)-4-oxo-4,5-dihydro-3H-1-thia-3,5,8-triazaacenaphthylene-2-carboxamide]",7.8
